“And” between values parts separate entries of the source, which are not always exact repeats. Identical values can stand only once. “Also recorded” adds a separate entry of the source. Like-named read-outs stand apart in the source and are kept apart here.
Columns and labels:
[1] = test system: Am5-HT2B; set-up: method as in Thamm et al., 2013; settings: ref Thamm et al., 2013, cited from earlier work; for EC50: Am5-HT2B in HEK 293 cells; for Ca2+-dependent fluorescence blocked to: residual signal
[2] = test system: Cv5-HT2A; set-up: method as in Röser et al., 2012; settings: ref Röser et al., 2012, cited from earlier work; for EC50: Cv5-HT2A in HEK 293 cells
[3] = target: T1, Dm5-HT2B (Drosophila melanogaster, UniProt Q8INQ6); test: Ca2+ fluorimetry (Fluo-4), agonist activation of Dm5-HT2B expressed in HEK 293 cells; type: cell-based; settings: for change in Ca2+-dependent Fluo-4 fluorescence: biogenic amines 1 μM each
Method: Stably transfected cells were selected in the presence of the antibiotic G418 (0.8 mg/ml). Isolated foci were propagated and analyzed for the expression of Dm5-HT2B-HA receptor either by immunocytochemistry, Western blotting or by functional Ca^2+ imaging upon receptor activation.
The ability of the Dm5-HT2B-HA receptor (hereafter referred to as Dm5-HT2B) to activate Gq proteins was assessed by monitoring changes in [Ca^2+]i with the Ca^2+-sensitive fluorescent dye Fluo-4 (Invitrogen). Non-transfected HEK 293 cells and cells expressing Dm5-HT2B were grown in minimal essential medium (MEM + GlutaMAX^TMI (Gibco/ThermoFisher Scientific, Darmstadt, Germany) containing 2% (w/v) Utroser^TM G (Pall, Dreieich, Germany), 1 × non-essential amino acids and 1 × antibiotics/antimycotics) in 96-well plates to a density of ∼3 × 10^4 cells per well. In this format, each vertical row (=8 wells) of the 96-well plate is incubated with the same ligand concentration. […] Plates were transferred into a fluorescence reader (FLUOstar Galaxy/Optima; BMG Labtech, Offenburg, Germany) to monitor Fluo-4 fluorescence. […] Various concentrations of biogenic amines and synthetic receptor ligands were added, once Fluo-4 fluorescence had reached a stable value in each well. The changes in Fluo-4 fluorescence were recorded automatically. Concentration-response curves for putative agonists/antagonists were established in at least two independent experiments with octuplicate determinations (s.a.) per data point.

[4] = test system: Am5-HT2A; set-up: method as in Thamm et al., 2013; settings: ref Thamm et al., 2013, cited from earlier work; for EC50: Am5-HT2A in HEK 293 cells
[5] = test system: Rp5-HT2B; set-up: method as in Paluzzi et al., 2015; settings: ref Paluzzi et al., 2015, cited from earlier work; for receptor activity reduced by: Rp5-HT2B, highest of three concentrations tested (10^-7, 10^-6, 10^-5 M)
[6] = target: T1, Dm5-HT2B; test: Ca2+ fluorimetry (Fluo-4), antagonists on serotonin-stimulated Dm5-HT2B-expressing HEK 293 cells; type: cell-based; settings: for effect on serotonin-stimulated Dm5-HT2B-expressing cells: 10^-9 M to 10^-4 M antagonist on 10^-7 M serotonin; for Maximal inhibition: relative efficacy, signal with 10^-7 M serotonin = 100%
Method: (§1) The ability of the Dm5-HT2B-HA receptor (hereafter referred to as Dm5-HT2B) to activate Gq proteins was assessed by monitoring changes in [Ca^2+]i with the Ca^2+-sensitive fluorescent dye Fluo-4 (Invitrogen). Non-transfected HEK 293 cells and cells expressing Dm5-HT2B were grown in minimal essential medium (MEM + GlutaMAX^TMI (Gibco/ThermoFisher Scientific, Darmstadt, Germany) containing 2% (w/v) Utroser^TM G (Pall, Dreieich, Germany), 1 × non-essential amino acids and 1 × antibiotics/antimycotics) in 96-well plates to a density of ∼3 × 10^4 cells per well. In this format, each vertical row (=8 wells) of the 96-well plate is incubated with the same ligand concentration. Cells were loaded at room temperature with Fluo-4 as described earlier ([Thamm et al., 2013]; [Blankenburg et al., 2015]) in extracellular solution [ES = in mM: 120 NaCl, 5 KCl, 2 MgCl2, 2 CaCl2, 10 HEPES, 10 Glucose, pH 7.4 (NaOH)]. Plates were transferred into a fluorescence reader (FLUOstar Galaxy/Optima; BMG Labtech, Offenburg, Germany) to monitor Fluo-4 fluorescence. The excitation wavelength was 485 nm, and fluorescence emission was detected at 520 nm. Various concentrations of biogenic amines and synthetic receptor ligands were added, once Fluo-4 fluorescence had reached a stable value in each well. The changes in Fluo-4 fluorescence were recorded automatically. Concentration-response curves for putative agonists/antagonists were established in at least two independent experiments with octuplicate determinations (s.a.) per data point.
Next, we examined the ability of potential receptor antagonists for impairing Dm5-HT2B activity.

[7] = target: T1, Dm5-HT2B; set-up: method as in Gasque et al. (2013); settings: Dm5-HT2B in HEK 293T cells, individual cells; ref Gasque et al. (2013); cited from earlier work
[8] = test system: D. melanogaster larvae; set-up: method as in Gasque et al., 2013; settings: ref Gasque et al., 2013; cited from earlier work
[9] = test system: β-adrenergic-like octopamine receptor Octβ3R (CG42244); set-up: method as in Maqueira et al., 2005; settings: only 10^-5 M tested; ref Maqueira et al., 2005; cited from earlier work
[10] = target: tyramine receptor TyrR (CG7431); set-up: method as in Arakawa et al., 1990; settings: ref Arakawa et al., 1990; cited from earlier work
[11] = test system: non-transfected HEK 293 cells; test: Ca2+ fluorimetry (Fluo-4) in non-transfected HEK 293 cells (control); type: cell-based; settings: for change in Ca2+-dependent Fluo-4 fluorescence: biogenic amines 1 μM each
Method: as §1

[12] = background of 10^-7 M serotonin, Dm5-HT2B-expressing HEK 293 cells

T1 sequence (Q8INQ6 entry or part of it): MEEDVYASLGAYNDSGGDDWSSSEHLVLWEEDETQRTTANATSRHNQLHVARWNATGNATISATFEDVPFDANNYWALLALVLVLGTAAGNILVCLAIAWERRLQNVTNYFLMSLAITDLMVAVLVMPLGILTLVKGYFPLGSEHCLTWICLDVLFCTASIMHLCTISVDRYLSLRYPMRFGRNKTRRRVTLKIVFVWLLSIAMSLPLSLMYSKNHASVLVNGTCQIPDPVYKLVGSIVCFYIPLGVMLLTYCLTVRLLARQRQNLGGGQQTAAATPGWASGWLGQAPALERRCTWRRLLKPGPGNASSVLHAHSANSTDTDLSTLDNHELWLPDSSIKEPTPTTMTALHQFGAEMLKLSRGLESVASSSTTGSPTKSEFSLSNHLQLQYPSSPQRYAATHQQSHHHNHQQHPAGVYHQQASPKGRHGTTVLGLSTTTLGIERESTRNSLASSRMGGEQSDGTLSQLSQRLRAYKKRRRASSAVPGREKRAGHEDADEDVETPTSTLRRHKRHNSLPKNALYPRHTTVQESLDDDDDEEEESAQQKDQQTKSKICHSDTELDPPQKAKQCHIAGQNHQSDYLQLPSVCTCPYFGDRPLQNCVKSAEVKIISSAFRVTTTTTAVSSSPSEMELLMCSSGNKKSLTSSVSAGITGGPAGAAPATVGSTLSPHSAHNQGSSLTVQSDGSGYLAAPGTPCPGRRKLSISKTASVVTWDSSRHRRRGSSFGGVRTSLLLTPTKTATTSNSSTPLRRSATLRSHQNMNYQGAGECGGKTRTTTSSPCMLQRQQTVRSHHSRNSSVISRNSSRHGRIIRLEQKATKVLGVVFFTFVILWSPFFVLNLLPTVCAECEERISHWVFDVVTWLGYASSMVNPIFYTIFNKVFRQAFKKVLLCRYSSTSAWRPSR

For `COc1ccc2[nH]cc(CCN)c2c1` [5-methoxytryptamine], the EC50 [1] is given as 60.4 nM, the EC50 [2] is given as 67 nM and the EC50 ([3]; EC50 (half-maximal activation of Dm5-HT2B), Dm5-HT2B-expressing HEK 293 cells, Fluo-4 fluorescence, concentrations 10^-9 M to 10^-4 M) is given as 1050 nM and ~1000 nM. The EC50 [4] was 70 nM.
In the case of `CCCN(CCC)C1CCc2cccc(O)c2C1` (stereo not drawn) [8-OH-DPAT, 8-Hydroxy-2-(di-n-propylamino)tetralin], the EC50 [1] is given as 560 nM, the EC50 [2] is given as 62000 nM and the EC50 [3] is given as ~650000 nM. For the same compound, the EC50 [4] was 55900 nM.
In the case of `CN1CCN(C2=Nc3cc(Cl)ccc3Nc3ccccc32)CC1` [Clozapine, clozapine], the “Ca2+-dependent fluorescence blocked to” value ([1]; Am5-HT2B) is given as 5%.
For `CN1CCC(=C2c3ccccc3C=Cc3ccccc32)CC1` [Cyproheptadine, cyproheptadine], the “receptor activity reduced by” value [5] is listed as ≥ 50%, the “Ca2+-dependent fluorescence blocked to” value ([1]; Am5-HT2B) is listed as 23% and the “serotonin-induced Ca2+-dependent fluorescence reduced by” value ([4]; Am5-HT2A) is listed as 36%.
In the case of `O=C(c1ccc(F)cc1)C1CCN(CCn2c(=O)[nH]c3ccccc3c2=O)CC1` [Ketanserin, ketanserin], the “receptor activity reduced by” value [5] is given as ≥ 50%, the “effect on serotonin-stimulated Dm5-HT2B-expressing cells” value [6] is given as “did not observe any effect; also recorded: completely lacked inhibitory potential” and the IC50 [6, 12] is given as “no effect”.
With `CC[C@@H](CO)NC(=O)[C@@H]1C=C2c3cccc4c3c(cn4C)C[C@H]2N(C)C1` [Methysergide, methysergide] the “effect on serotonin-stimulated Dm5-HT2B-expressing cells” value [6] was “did not observe any effect; also recorded: completely lacked inhibitory potential” and the IC50 [6, 12] was “no effect”.
In the case of `CSc1ccc2c(c1)C(N1CCN(C)CC1)Cc1ccccc1S2` (stereo not drawn) [Metitepine, metitepine], the antagonist activity ([1]; Am5-HT2B) is listed as “did not have any activity at all”, the IC50 [7] is listed as 2000 nM and the IC50 ([6]; IC50, background of 10^-7 M serotonin, Dm5-HT2B-expressing HEK 293 cells) is listed as 3.56e-06 M. The IC50 ([6]; Log IC50 ± SD, logarithm of the IC50 (M), background of 10^-7 M serotonin) was 3.55e-06 M, the Maximal inhibition [6] was 35% and the IC50 ([2]; Cv5-HT2A) was 1200 nM. The “serotonin-induced Ca2+ signals reduced to % of control measurements” value ([2]; Cv5-HT2A) was 15%, the “effect on food intake” value [8] was “potent anorectic drug” and the “inhibition range (IC50)” value ([4]; Am5-HT2A) was “micromolar range”. For the same compound, the “serotonin-induced Ca2+-dependent fluorescence reduced by” value ([4]; Am5-HT2A) was 39%.
In the case of `CCN(CC)CCNC(=O)c1cc(Cl)c(N)cc1OC` [Metoclopramide, metoclopramide], the effect on receptor [9] is listed as “block”, the IC50 ([6]; background of 10^-7 M serotonin, Dm5-HT2B-expressing HEK 293 cells, read-out: IC50) is listed as 1.59e-08 M and the IC50 ([6]; logarithm of the IC50 (M), background of 10^-7 M serotonin, read-out: Log IC50 ± SD (converted)) is listed as 1.58e-08 M. The Maximal inhibition [6] was 60%, the “serotonin-evoked Ca2+ response reduced to % of control measurements without antagonist” value ([6]; residual signal at maximal inhibition) was 40% and the Ki [10] was 4.6 µM.
For `CN1CCN2c3ccccc3Cc3ccccc3C2C1` (stereo not drawn) [Mianserin, mianserin], the “receptor activity reduced by” value [5] is given as ≥ 50%, the “Ca2+-dependent fluorescence blocked to” value ([1]; Am5-HT2B) is given as 24% and the “serotonin-induced Ca2+-dependent fluorescence reduced by” value ([4]; Am5-HT2A) is given as 49%.
In the case of `COc1cc2nc(N3CCN(C(=O)c4ccco4)CC3)nc(N)c2cc1OC` [Prazosin, prazosin], the “effect on serotonin-stimulated Dm5-HT2B-expressing cells” value [6] is reported as “caused a reduction of the cellular response; also recorded: the responses did not saturate”, the IC50 [6, 12] is reported as “no saturation” and the Maximal inhibition [6] is reported as 50%.
In the case of `Cc1cc2c(cc1Cl)N(C(=O)Nc1ccc(Oc3cccnc3C)nc1)CC2` [SB 242084], the “effect on serotonin-stimulated Dm5-HT2B-expressing cells” value [6] is reported as “did not observe any effect; also recorded: completely lacked inhibitory potential” and the IC50 [6, 12] is reported as “no effect”.
For `O=C(CCCN1CCC2(CC1)C(=O)NCN2c1ccccc1)c1ccc(F)cc1` [Spiperone, spiperone], the “effect on serotonin-stimulated Dm5-HT2B-expressing cells” value [6] was “caused a reduction of the cellular response; also recorded: the responses did not saturate”, the IC50 [6, 12] was “no saturation” and the Maximal inhibition [6] was 25%.
For `NCCc1ccc(O)c(O)c1` [dopamine], the “change in Ca2+-dependent Fluo-4 fluorescence” value (“change” for short) [11] was “Neither dopamine, octopamine nor tyramine evoked responses” and the “change” value ([3]; Dm5-HT2B-expressing cells) was “Neither dopamine, octopamine nor tyramine evoked responses”.
With `NCCc1c[nH]cn1` [histamine] the “change” value [11] was “caused a rise in Ca^2+-dependent Fluo-4 fluorescence” and the “change” value ([3]; Dm5-HT2B-expressing cells) was “caused a rise in Ca^2+-dependent Fluo-4 fluorescence”.
In the case of `NCC(O)c1ccc(O)cc1` (stereo not drawn) [octopamine], the “change” value [11] is reported as “Neither dopamine, octopamine nor tyramine evoked responses” and the “change” value ([3]; Dm5-HT2B-expressing cells) is reported as “Neither dopamine, octopamine nor tyramine evoked responses”.
In the case of `NCCc1c[nH]c2ccc(O)cc12` [serotonin, 5-hydroxytryptamine], the EC50 ([5]; Rp5-HT2B in CHOK1-aeq cells) is given as 201 nM, the EC50 [1] is given as 32.5 nM and the EC50 [2] is given as 24 nM. For the same compound, the “fluorescence signal at the highest ligand concentration” value ([11]; 10^-4 M) was “slight increase in the fluorescence signal”, the “change” value [11] was “not in non-transfected cells” and the “concentration at which the concentration-response curve saturated” value ([3]; Dm5-HT2B-expressing cells) was 30 µM. For the same compound, the “change” value ([3]; Dm5-HT2B-expressing cells) was “increase in the fluorescence signal” and the EC50 [4] was 25.7 nM.
With `NCCc1ccc(O)cc1` [tyramine] the “change” value [11] was “Neither dopamine, octopamine nor tyramine evoked responses” and the “change” value ([3]; Dm5-HT2B-expressing cells) was “Neither dopamine, octopamine nor tyramine evoked responses”.

Reference: publication PMC5425475 (Frontiers in Systems Neuroscience, 2017)
